Where two headings read alike, the source gives them in different places.
Target: T1, Human full-length diacylglycerol:acylCoA acyltransferase 1 (DGAT-1) (Homo sapiens, UniProt O75907)
T1 construct: Human full-length diacylglycerol:acylCoA acyltransferase 1 (DGAT-1) was expressed in Sf9 insect cells; made in house; host or cells: Sf9 insect cells (baculovirus)
T1 sequence (O75907 1-488): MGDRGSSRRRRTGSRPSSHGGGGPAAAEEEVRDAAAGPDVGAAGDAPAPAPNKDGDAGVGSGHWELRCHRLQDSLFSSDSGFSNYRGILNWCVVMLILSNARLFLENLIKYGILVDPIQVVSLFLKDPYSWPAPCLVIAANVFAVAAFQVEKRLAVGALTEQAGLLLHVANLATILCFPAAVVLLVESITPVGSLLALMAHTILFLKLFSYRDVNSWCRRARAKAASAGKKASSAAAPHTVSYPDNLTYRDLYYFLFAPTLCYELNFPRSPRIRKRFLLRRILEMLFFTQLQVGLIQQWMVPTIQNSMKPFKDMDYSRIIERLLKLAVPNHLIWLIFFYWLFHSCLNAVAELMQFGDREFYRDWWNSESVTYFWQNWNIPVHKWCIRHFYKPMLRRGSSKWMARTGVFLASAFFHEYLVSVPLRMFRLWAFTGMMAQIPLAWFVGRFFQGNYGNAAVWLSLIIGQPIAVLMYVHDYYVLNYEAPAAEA
Assay: In vitro assay for DGAT-1 inhibition ([14C]decanoylCoA, Sf9 membrane fraction)
Assay type: biochemical
Experimental: Human full-length diacylglycerol:acylCoA acyltransferase 1 (DGAT-1) was expressed in Sf9 insect cells which are then lysed and a crude membrane fraction (105,000×g pellet) was prepared.
The cells were cultured as follows. Sf9 cells (20 L) were infected with 4 mL of DGAT1 Baculovirus Infected Insect Cells (BIIC) for 72 hours in a Wave Bioreactor System 20/50P (Wave Biotec/GE Healthcare).
Crude DGAT-1 microsomes were prepared as follows. Cell pellets were washed once with ice-cold Dulbecco's phosphate-buffered saline. Cells were collected in tabletop centrifuge (Beckman GS-6KR), 15 minutes, 2000×g, 4° C. Twenty (20) mL of ice-cold Microsome Buffer (MB) was added per 5 g of cell pellet. The suspension was passed through a microfluidizer 3 times (18K psi). The lysate was transferred to centrifuge tubes and centrifuged for 20 minutes at 5000×g (Beckman-Coulter, Inc. Allegra® 64R High-Speed Refrigerated Benchtop Centrifuge, F0650 rotor) at 4° C. The supernatant was transferred to Ultracentrifuge tubes and centrifuged at […] for 1 hr in a Beckman Ti-45 rotor, 4° C. The supernatant fluid was discarded. The pellet was resuspended in 70 mL of MB by sonication. The microsome concentration was determined using Bio-Rad Protein DC Protein Assay. The microsomes were filter sterilized with a 0.22 μm filter. The samples were portioned, flash frozen and stored at −80° C.
Inhibitors in DMSO were pre-incubated with membranes before initiating the DGAT-1 reaction by the addition of decanoylCoA. […] The inhibitors were present at a range of eight concentrations to generate an apparent IC50 for each compound. […] Specifically, the eight concentrations used were 10 μM, 3 μM, 1 μM, 300 nM, 100 nM, 30 nM, 10 nM and 3 nM.
The reactions were allowed to proceed for 1.5 h at room temperature and then terminated by the addition of 10 μl of HCl (0.5 M). Reaction mixtures were neutralized by the addition of 15 μl of tris(hydroxy-methyl)aminomethane (1M, pH 8.0) and then mixed by trituration with 37.5 μl of Microscint™-E (Perkin Elmer).
Where this DGAT-1 inhibition assay was performed on a compound more than once, an inhibition range is also provided for that compound.

[1] = apparent IC50, eight inhibitor concentrations 10 μM to 3 nM, read-out: IC50
[2] = inhibition range where the assay was performed on a compound more than once, read-out: IC50 range
[3] = Examples 17-23 table, range of repeated assays, read-out: DGAT-1 IC50 Range
[4] = Examples 17-23 table, read-out: DGAT-1 IC50
[5] = Examples 24-25 table, range of repeated assays, read-out: DGAT-1 IC50 Range
[6] = Examples 24-25 table, read-out: DGAT-1 IC50

Structure (SMILES) | IC50 [1] | IC50 [2] | IC50 [3] | IC50 [4] | also measured
COC(=O)CC1CC=C(c2ccc(N3CCOc4ncnc(N)c4C3=O)cc2)CC1 (racemic) [Example 52, Methyl(+)-{4-[4-(4-Amino-5-oxo-7,8-dihydropyrimido[5,4-f][1,4]oxazepin-6(5H)-yl)phenyl]cyclohex-3-en-1-yl}acetate] | 84.3 nM | – | – | – | –
Nc1ncnc2c1C(=O)N(c1ccc([C@@H]3CC[C@@H]4[C@@H](CC(=O)O)CC[C@@H]43)cc1)CCO2 (racemic) [Example 55, ±{(1R,3aS,4R,6aR)4-[4-(4-Amino-5-oxo-7,8-dihydropyrimido[5,4-f][1,4]oxazepin-6(5H)-yl)phenyl]octahydropentalen-1-yl}acetic Acid] | < 10 nM | 3 to 27.2 nM | – | – | –
Nc1ncnc2c1C(=O)N(c1ccc([C@H]3C[C@H]4C[C@@H]3C3C(C(=O)O)C34)cc1)CCO2 (mixture of isomers) [Example 57, (±)-(1R,5R,6S)-6-[4-(4-Amino-5-oxo-7,8-dihydropyrimido[5,4-f][1,4]oxazepin-6(5H)-yl)phenyl]tricyclo[3.2.1.0˜2.4˜]octane-3-carboxylic Acid] | 34.7 nM | 26.7 to 58.6 nM | – | – | –
Nc1ncnc2c1C(=O)N(c1ccc(C3=CCC(CC(=O)O)CC3)cc1)CCO2 (single isomer, unassigned; (+)) [Example 53, (+)-{4-[4-(4-Amino-5-oxo-7,8-dihydropyrimido[5,4-f][1,4]oxazepin-6(5H)-yl)phenyl]cyclohex-3-en-1-yl}acetic Acid] | 36.4 nM | 33.8 to 39.3 nM | – | – | –
C[C@H]1COc2ncnc(N)c2C(=O)N1c1ccc([C@H]2CC[C@H](CC(=O)O)CC2)cc1 [Example 5] | 33.9 nM | – | – | – | –
Nc1ncnc2c1C(=O)N(c1ccc(C3CCC(CC(=O)O)CC3)cc1F)CCO2 (stereo not drawn) [Example 6, 2-(4-(4-(4-amino-5-oxo-7,8-dihydropyrimido[5,4-f][1,4]oxazepin-6(5H)-yl)-3-fluorophenyl)cyclohexyl)acetic Acid] | 55.5 nM | 29.1 to 89.6 nM | – | – | –
CCOC(=O)C[C@H]1CC[C@H](c2ccc(N3CC(C)(C)Oc4ncnc(N)c4C3=O)cc2)CC1 [Example 7, ethyl {trans-4-[4-(4-amino-8,8-dimethyl-5-oxo-7,8-dihydropyrimido[5,4-f][1,4]oxazepin-6(5H)-yl)phenyl]cyclohexyl}acetate] | 183 nM | – | – | – | –
COC(=O)C[C@H]1CC[C@H](c2ccc(N3CCOc4nc(C)nc(N)c4C3=O)cc2)CC1 [Example 9, methyl {trans-4-[4-(4-amino-2-methyl-5-oxo-7,8-dihydropyrimido[5,4-f][1,4]oxazepin-6(5H)-yl)phenyl]cyclohexyl}acetate] | 239 nM | – | – | – | –
CCC1CN(c2ccc(C3CCC(CC(=O)O)CC3)cc2)C(=O)c2c(N)ncnc2O1 (stereo not drawn) [Example 13, {4-[4-(4-Amino-8-ethyl-5-oxo-7,8-dihydro-5H-9-oxa-1,3,6-triaza-benzocyclohepten-6-yl)-phenyl]-cyclohexyl}-acetic acid] | 1330 nM | 1070 to 1660 nM | – | – | –
CC1COc2ncnc(N)c2C(=O)N1c1ccc(C2CCC(CC(=O)O)CC2)cc1 (stereo not drawn) [Example 15, {4-[4-(4-Amino-7-methyl-5-oxo-7,8-dihydro-5H-9-oxa-1,3,6-triaza-benzocyclohepten-6-yl)-phenyl]-cyclohexyl}-acetic acid] | 27.3 nM | 13.6 to 77.9 nM | – | – | –
C[C@@H]1CN(c2ccc(C3CCC(CC(=O)O)CC3)c(F)c2)C(=O)c2c(N)ncnc2O1 (stereo partly drawn) [Example 17, (R)-2-(4-(4-(4-amino-8-methyl-5-oxo-7,8-dihydropyrimido[5,4-f][1,4]oxazepin-6(5H)-yl)-2-fluorophenyl)cyclohexyl)acetic acid] | – | – | 3 to 15.5 nM | < 6.21 nM | –
Nc1ncnc2c1C(=O)N(c1ccc(C3CCC(CC(=O)O)CC3)c(Cl)c1)CCO2 (stereo not drawn) [Example 18, 2-(4-(4-(4-amino-5-oxo-7,8-dihydropyrimido[5,4-f][1,4]oxazepin-6(5H)-yl)-2-chlorophenyl)cyclohexyl)acetic acid] | – | – | 4.4 to 6.9 nM | 5.82 nM | –
Nc1ncnc2c1C(=O)N(c1ccc(C3CCC(CC(=O)O)CC3)c(F)c1)CCO2 (stereo not drawn) [Example 19, 2-(4-(4-(4-amino-5-oxo-7,8-dihydropyrimido[5,4-f][1,4]oxazepin-6(5H)-yl)-2-fluorophenyl)cyclohexyl)acetic acid] | – | – | 3 to 15.5 nM | < 8.26 nM | –
Cc1cc(N2CCOc3ncnc(N)c3C2=O)ccc1C1CCC(CC(=O)O)CC1 (stereo not drawn) [Example 20, 2-(4-(4-(4-amino-5-oxo-7,8-dihydropyrimido[5,4-f][1,4]oxazepin-6(5H)-yl)-2-methylphenyl)cyclohexyl)acetic acid] | – | – | 8.6 to 17.2 nM | 13 nM | –
Cc1cc(N2C[C@@H](C)Oc3ncnc(N)c3C2=O)ccc1C1CCC(CC(=O)O)CC1 (stereo partly drawn) [Example 21, (R)-2-(4-(4-(4-amino-8-methyl-5-oxo-7,8-dihydropyrimido[5,4-f][1,4]oxazepin-6(5H)-yl)-2-methylphenyl)cyclohexyl)acetic acid] | – | – | 6.1 to 37.4 nM | 14.8 nM | –
C[C@@H]1CN(c2ccc(C3CCC(CC(=O)O)CC3)cc2F)C(=O)c2c(N)ncnc2O1 (stereo partly drawn) [Example 22, (R)-2-(4-(4-(4-amino-8-methyl-5-oxo-7,8-dihydropyrimido[5,4-f][1,4]oxazepin-6(5H)-yl)-3-fluorophenyl)cyclohexyl)acetic acid] | – | – | 27.9 to 34.5 nM | 30 nM | –
Cc1cc(C2CCC(CC(=O)O)CC2)ccc1N1CCOc2ncnc(N)c2C1=O (stereo not drawn) [Example 23, 2-(4-(4-(4-amino-5-oxo-7,8-dihydropyrimido[5,4-f][1,4]-oxazepin-6(5H)-yl)-3-methylphenyl)cyclohexyl)acetic acid] | – | – | 643 to 2270 nM | 1410 nM | –
C[C@@H]1CN(c2ccc([C@H]3CC[C@@H](CC(=O)O)CC3)c(F)c2)C(=O)c2c(N)ncnc2O1 [Example 24, (cis-4-{4-[(8R)-4-amino-8-methyl-5-oxo-7,8-dihydropyrimido[5,4-f][1,4]oxazepin-6(5H)-yl]-2-fluorophenyl}cyclohexyl)acetic acid] | – | – | – | – | IC50 [5]: 1.7 to 13.2 nM; IC50 [6]: 4.6 nM
C[C@@H]1CN(c2ccc([C@H]3CC[C@H](CC(=O)O)CC3)c(F)c2)C(=O)c2c(N)ncnc2O1 [Example 25, (trans-4-{4-[(8R)-4-amino-8-methyl-5-oxo-7,8-dihydropyrimido[5,4-f][1,4]oxazepin-6(5H)-yl]-2-fluorophenyl}cyclohexyl)acetic acid] | – | – | – | – | IC50 [5]: 10 to 17 nM; IC50 [6]: 12.3 nM
CS(=O)(=O)NC(=O)C[C@H]1CC[C@H](c2ccc(N3CCOc4ncnc(N)c4C3=O)cc2)CC1 [Example 26, 2-{Trans-4-[4-(4-amino-5-oxo-7,8-dihydropyrimido[5,4-f][1,4]oxazepin-6(5H)-yl)phenyl]cyclohexyl}-N-(methylsulfonyl)acetamide] | 44.5 nM | 34.2 to 75 nM | – | – | –
C[C@@H]1CN(c2ccc([C@H]3CC[C@H](CC(N)=O)CC3)cc2)C(=O)c2c(N)ncnc2O1 [Example 27, (Trans-4-{4-[(8R)-4-amino-8-methyl-5-oxo-7,8-dihydropyrimido[5,4-f][1,4]oxazepin-6(5H)-yl]phenyl}cyclohexyl)acetamide] | 52.2 nM | 11.4 to 68.1 nM | – | – | –
C[C@@H]1CN(c2ccc(C3CCC(CC(N)=O)CC3)c(F)c2)C(=O)c2c(N)ncnc2O1 (stereo partly drawn) [Example 28, (R)-2-(4-(4-(4-amino-8-methyl-5-oxo-7,8-dihydropyrimido[5,4-f][1,4]oxazepin-6(5H)-yl)-2-fluorophenyl)cyclohexyl)acetamide] | 11.3 nM | 7.3 to 19.9 nM | – | – | –
C[C@@H]1CN(c2ccc([C@H]3CC[C@H](CC#N)CC3)cc2)C(=O)c2c(N)ncnc2O1 [Example 47, (Trans-4-{4-[(8R)-4-amino-8-methyl-5-oxo-7,8-dihydropyrimido[5,4-f][1,4]oxazepin-6(5H)-yl]phenyl}cyclohexyl)acetonitrile] | 38.4 nM | 30.1 to 48.1 nM | – | – | –

Source: patent publication US7718645B2, “Substituted bicyclolactam compounds” (Pfizer Inc., priority 2007, dated 2010)
